Test results as given in patent publication US20170246311A1, “PEPTIDES FOR BINDING ALTERNATIVELY ACTIVATED MACROPHAGES” (University of Washington, priority 2016, published 2017).
Like-named read-outs stand apart in the source and are kept apart here. Each block holds one molecule with its values, some of them ahead of it. Starred links: 1 amine or outer side, 2 acyl side, 3 side chain; linkers in the order of their positions; H or OH if unused. Positions of bridges follow the written chain, without caps; N, C: chain ends. Non-standard residues stand in square brackets, D forms with d. Residues, ends and D or L forms follow the SMILES beside them. *: point of attachment. Perfluorobiphenyl(4,4') = Fc1c(F)c([*:1])c(F)c(F)c1-c1c(F)c(F)c([*:2])c(F)c1F; Biotin = O=C1N[C@H]2[C@H](CS[C@H]2CCCCC(=O)*)N1

What was measured:
[1] = Solubility of cyclized peptide analogs
M2 macrophages [2] = assay: Binding study of biotinylated peptides on polarized bone marrow-derived macrophages (streptavidin-FITC, flow cytometry); assay type: cell-based, mouse; details: for Kd: M2 macrophages, half-maximal MFI, read-out: apparent dissociation constant (KD); for binding activity to M2 macrophages (in words): biotinylated peptide, on ice 20 min
Experimental: All animal handling protocols were approved by the University of Washington Institutional Animal Care and Use Committee. Bone marrow harvest was performed following the previously reported protocol. Briefly, femur and tibia were excised from 6-8 week-old female c57bl6/027 mice. Cuts were made on the ends of each bone, and RPMI 1640 medium was used to flush out bone marrow cells via 18G needle. The cells were cultured on petri dishes in RPMI 1640 medium supplemented with 20% donor horse serum, 1% antibiotic-antimycotic (AbAm), and 20 ng/mL M-CSF. After 7 d of culture, macrophages were activated by replacing M-CSF with 25 ng/mL IFN-γ and 100 ng/mL LPS for M1 macrophage or 25 ng/mL IL-4 for M2 macrophage. The macrophages were activated for 2 d and then scraped off the petri dishes with cell lifter for binding studies.
(§1) Peptide solutions at different concentrations for binding study were prepared by dilutions from the stock solution (10 mg/mL in dH2O) with PBS containing 1% BSA (PBSA). M1 and M2 macrophages (50,000 cells/well) were seeded on a black 96-well plate and incubated in the peptide solutions on ice for 20 min. Unbound peptides were washed off with PBSA twice. The macrophages were subsequently incubated with streptavidin-FITC for 15 min on ice to probe for the bound peptides. Excess streptavidin-FITC was washed off with PBSA twice, and the macrophages were then resuspended in PBS for analysis by MACSQuant Flow Cytometer (Miltenyi Biotec, San Diego, Calif.). Propidium iodide was added to the samples before the data acquisition to discriminate dead cells. Flow cytometry data were analyzed with FlowJo Analysis Software (Tree Star, Ashland, Oreg.). Binding study of peptides post serum incubation was similarly performed with the following additions: The peptides (5 mM stock solution in H2O) were diluted in serum to a final concentration of 0.5 mM and incubated at 37° C. in an incubator. At each time point, an aliquot of the peptides was drawn and diluted in PBS to the final concentration for the binding study. The diluted aliquot was heated at 80° C. for 30 min to inactivate serum proteins, stored in a −20° C. freezer, and thawed for use in the binding study after aliquots at all time points were collected.
All animal handling protocols were approved by the University of Washington Institutional Animal Care and Use Committee. Bone marrow-derived cells were harvested from female c57bl/6 mice as previously described. In brief, femurs and tibias of the mice were excised and flushed with RPMI 1640 medium via an 18G needle. The cells were cultured on petri dishes containing RPMI 1640 medium supplemented with 20% donor horse serum, 1% antibioticantimycotic (AbAm), and 20 ng/mL M-CSF. After 7 d in culture, the medium was replaced with an activation medium whereby M-CSF was replaced with 25 ng/mL IFN-γ and 100 ng/mL LPS for M1 activation or with 25 ng/mL IL-4 for M2 activation. For M1 activation medium, AbAm was replaced with 1% penicillin-streptomycin (Pen-Strep). After 2 d of activation, the activated macrophages were scraped off the petri dishes for binding studies.
Biotinylated peptide stock solutions were prepared in H2O at 10 mg/mL concentration and quantified for the exact concentration using Quant*Tag Biotin quantification kit. The stock solutions were diluted in PBS with 1% BSA (PBSA) to different concentrations for binding studies. Activated macrophages were seeded on a black 96-well plate (50,000 cells/well) and incubated with the peptide solutions for 20 min on ice. The cells were washed twice with PBSA and subsequently incubated with streptavidin-FITC for 15 min on ice. After two additional washes, the cells were resuspended in PBS for analysis via MACSQuant Flow Cytometer (Miltenyi Biotec, San Diego, Calif.). Propidium iodide (PI) was added before running each sample to assess for cell viability. Data analysis was processed on FlowJo Analysis Software (Tree Star, Ashland, Oreg.). […]

[3] = Serum stability study in normal mouse serum, analysis by MALDI-TOF MS; details: for overall serum stability (in words): MALDI-TOF MS
Experimental: The peptide of interest (30 μL of 10 mg/mL stock solution in dH2O) was added to normal mouse serum (300 μL) and incubated at 37° C. in an incubator. At each time point, an aliquot of 40 μL was drawn and an equal volume of ACN was added to the aliquot to precipitate serum proteins. The cloudy mixture was centrifuged at 10,000 rpm for 5 min and then supernatant removed. A solution of 1:1 H2O/ACN (80 μL) was added to the pellet and sonicated for 10 min to further extract the remaining peptides. This resuspended mixture was then centrifuged, and the supernatant was pooled with the former and vacuum-dried on a Speedvac machine. The dried pellet was solubilized in H2O (50 μL) by sonication for 10 min. The mixture was then centrifuged, and the supernatant was drawn and analyzed by MALDI-TOF MS.
To evaluate serum stability of M2pep, the peptide was incubated in mouse serum, and aliquots of the serum at various time points were withdrawn for analysis of degradation patterns by MALDI-TOF MS.
Different M2pep analogs (30 μL from 10 mg/mL stock solution in H2O) were incubated in normal mouse serum (300 μL) at 37° C. in an incubator. An aliquot of the serum (40 μL) was drawn at different time intervals and precipitated with an equal volume of cold ACN. The mixture was centrifuged at 15,000 rpm for 5 min, and the supernatant was collected. A solution of H2O/ACN (1:1 v/v, 80 μL) was added to the pellet with a 10-min sonication to further extract residual peptides. The mixture was then centrifuged. The supernatant was pooled with the former and dried under vacuum on a Speedvac machine. The peptide pellet was resuspended in H2O (50 μL) with a 10-min sonication before analysis by MALDI-ToF MS.

M2 macrophages [4] = assay: Binding of M2pep analogs post serum incubation; assay type: cell-based, mouse; details: for decline in binding activity with serum pre-incubation: 150 μM of M2pepBiotin, 50 μM of AcM2pep(RY)Biotin and cyclic M2pep(RY)Biotin, mouse serum 37° C.
Experimental: as §1
For TAM targeting applications, M2pep analogs will be exposed to serum during systemic circulation. Therefore, we next studied how the serum stability of M2pep analogs affects subsequent binding to target cells. Peptides were incubated with mouse serum at 37° C. to mimic peptidase exposure in systemic circulation, and aliquots of the serum were withdrawn at various time points for binding studies with polarized macrophages. In general, binding activity of the M2pep analogs corresponded with the peptides' serum stability (FIG. 6). […]

SMILES: CC(C)[C@@H]1NC(=O)CNC(=O)[C@H](Cc2c[nH]c3ccccc23)NC(=O)[C@@H]2CCCN2C(=O)[C@H](CC(=O)O)NC(=O)[C@H](CCC(N)=O)NC(=O)[C@H](CCC(=O)O)NC(=O)[C@H](Cc2ccc(O)cc2)NC(=O)CNC(=O)[C@@H](N)CSc2c(F)c(F)c(c(F)c2F)-c2c(F)c(F)c(c(F)c2F)SC[C@@H](C(=O)N[C@H](CCCCN)C(=O)N[C@H](CCCCN)C(=O)N[C@H](CCCCN)C(=O)N[C@@H](CCCCNC(=O)CCCC[C@@H]2SC[C@@H]3NC(=O)N[C@@H]32)C(N)=O)NC(=O)CNC(=O)[C@H](Cc2ccc(O)cc2)NC(=O)[C@H](Cc2c[nH]c3ccccc23)NC(=O)[C@H](Cc2ccc(O)cc2)NC(=O)[C@H](CCCNC(=N)N)NC1=O [DFBP-cyclized M2pep(RY)Biotin] (H-CGYEQDPWGVRYWYGC[dK][dK][dK]K(Biotin)-NH2; linker 1-16 via Perfluorobiphenyl(4,4'))
- solubility (in words) [1]: higher solubility than FF-cyclized M2pep(RY)Biotin

- overall serum stability (in words) ([3]; mouse serum, 37° C.): Poor serum stability
SMILES: CC(C)[C@H](NC(=O)CNC(=O)[C@H](Cc1c[nH]c2ccccc12)NC(=O)[C@@H]1CCCN1C(=O)[C@H](CC(=O)O)NC(=O)[C@H](CCC(N)=O)NC(=O)[C@H](CCC(=O)O)NC(=O)[C@@H](N)Cc1ccc(O)cc1)C(=O)N[C@@H](CCCCN)C(=O)N[C@@H](Cc1c[nH]c2ccccc12)C(=O)N[C@@H](Cc1c[nH]c2ccccc12)C(=O)N[C@@H](Cc1ccc(O)cc1)C(=O)NCC(=O)NCC(=O)NCC(=O)N[C@@H](CO)C(=O)N[C@@H](CCCCN)C(=O)N[C@@H](CCCCN)C(=O)N[C@@H](CCCCNC(=O)CCCC[C@@H]1SC[C@@H]2NC(=O)N[C@@H]21)C(N)=O [M2pepBiotin, YEQDPWGVKWWYGGGSKK]
- Kd (M2 macrophages [2]): 220 µM
- decline in binding activity with serum pre-incubation (M2 macrophages [4]): fastest and greatest decline in binding activity

SMILES: CC(=O)N[C@@H](Cc1ccc(O)cc1)C(=O)N[C@@H](CCC(=O)O)C(=O)N[C@@H](CCC(N)=O)C(=O)N[C@@H](CC(=O)O)C(=O)N1CCC[C@H]1C(=O)N[C@@H](Cc1c[nH]c2ccccc12)C(=O)NCC(=O)N[C@H](C(=O)N[C@@H](CCCCN)C(=O)N1CCC[C@H]1C(=O)N[C@@H](Cc1c[nH]c2ccccc12)C(=O)N[C@@H](Cc1ccc(O)cc1)C(=O)NCC(=O)NCC(=O)NCC(=O)N[C@@H](CO)C(=O)N[C@H](CCCCN)C(=O)N[C@H](CCCCN)C(=O)N[C@H](CCCCN)C(=O)N[C@@H](CCCCNC(=O)CCCC[C@@H]1SC[C@@H]2NC(=O)N[C@@H]21)C(N)=O)C(C)C [W10P, Ac-YEQDPWGVKPWYGGGSkkk] (Ac-YEQDPWGVKPWYGGGS[dK][dK][dK]K(Biotin)-NH2)
- binding activity to M2 macrophages (in words) (M2 macrophages [2]): abrogated the binding activity
- serum stability at the W10/W11 endolytic cleavage site ([3]; mouse serum): did not confer protection at the W10/W11 site

SMILES: CC(=O)N[C@@H](Cc1ccc(O)cc1)C(=O)N[C@@H](CCC(=O)O)C(=O)N[C@@H](CCC(N)=O)C(=O)N[C@@H](CC(=O)O)C(=O)N1CCC[C@H]1C(=O)N[C@@H](Cc1c[nH]c2ccccc12)C(=O)NCC(=O)N[C@H](C(=O)N[C@@H](CCCCN)C(=O)N[C@@H](Cc1ccc(O)cc1)C(=O)N[C@@H](Cc1c[nH]c2ccccc12)C(=O)N[C@@H](Cc1ccc(O)cc1)C(=O)NCC(=O)NCC(=O)NCC(=O)N[C@@H](CO)C(=O)N[C@H](CCCCN)C(=O)N[C@H](CCCCN)C(=O)N[C@H](CCCCN)C(=O)N[C@@H](CCCCNC(=O)CCCC[C@@H]1SC[C@@H]2NC(=O)N[C@@H]21)C(N)=O)C(C)C [W10Y, Ac-YEQDPWGVKYWYGGGSkkk] (Ac-YEQDPWGVKYWYGGGS[dK][dK][dK]K(Biotin)-NH2)
- binding activity to M2 macrophages (in words) (M2 macrophages [2]): significantly increased binding activity
- serum stability at the W10/W11 endolytic cleavage site ([3]; mouse serum): did not confer protection at the W10/W11 site

SMILES: CC(=O)N[C@@H](Cc1ccc(O)cc1)C(=O)N[C@@H](CCC(=O)O)C(=O)N[C@@H](CCC(N)=O)C(=O)N[C@@H](CC(=O)O)C(=O)N1CCC[C@H]1C(=O)N[C@@H](Cc1c[nH]c2ccccc12)C(=O)NCC(=O)N[C@H](C(=O)N[C@@H](CCCCN)C(=O)N[C@H](Cc1c[nH]c2ccccc12)C(=O)N[C@@H](Cc1c[nH]c2ccccc12)C(=O)N[C@@H](Cc1ccc(O)cc1)C(=O)NCC(=O)NCC(=O)NCC(=O)N[C@@H](CO)C(=O)N[C@@H](CCCCN)C(=O)N[C@@H](CCCCN)C(=O)N[C@@H](CCCCN)C(=O)N[C@@H](CCCCNC(=O)CCCC[C@@H]1SC[C@@H]2NC(=O)N[C@@H]21)C(N)=O)C(C)C [W10w, Ac-YEQDPWGVKwWYGGGSKKK]
- binding activity to M2 macrophages (in words) (M2 macrophages [2]): abrogated binding activity
- serum stability at the W10/W11 endolytic cleavage site ([3]; mouse serum): effective protection against endolytic cleavage at the W10/W11 site

SMILES: CC(=O)N[C@@H](Cc1ccc(O)cc1)C(=O)N[C@@H](CCC(=O)O)C(=O)N[C@@H](CCC(N)=O)C(=O)N[C@@H](CC(=O)O)C(=O)N1CCC[C@H]1C(=O)N[C@@H](Cc1c[nH]c2ccccc12)C(=O)NCC(=O)N[C@H](C(=O)N[C@@H](CCCNC(=N)N)C(=O)N[C@@H](Cc1ccc(O)cc1)C(=O)N[C@@H](Cc1c[nH]c2ccccc12)C(=O)N[C@H](Cc1ccc(O)cc1)C(=O)NCC(=O)NCC(=O)NCC(=O)N[C@@H](CO)C(=O)N[C@H](CCCCN)C(=O)N[C@H](CCCCN)C(=O)N[C@H](CCCCN)C(=O)N[C@@H](CCCCNC(=O)CCCC[C@@H]1SC[C@@H]2NC(=O)N[C@@H]21)C(N)=O)C(C)C [Y12y, Ac-YEQDPWGVRYWyGGGSkkk] (Ac-YEQDPWGVRYW[dY]GGGS[dK][dK][dK]K(Biotin)-NH2)
- binding activity to M2 macrophages (in words) (M2 macrophages [2]): reduced binding activity
- serum stability at the W10/W11 endolytic cleavage site ([3]; mouse serum): did not improve serum stability at the W10/W11 site

- serum incubation time at which the peptide remained detectable by MALDI-TOF MS ([3]; mouse serum, 37° C.): ≥ 48 h
- time without endolytic cleavage at the W10/W11 site ([3]; mouse serum, 37° C.): at least 8 h
- incubation in mouse serum after which the cyclized peptide was eventually degraded ([3]; prolonged incubation in mouse serum): more than 1 day
- decline in binding activity with serum pre-incubation (M2 macrophages [4]): least decline
- binding activity after 24 h serum incubation (M2 macrophages [4]; 24 h in mouse serum at 37° C.): retained the highest binding activity
SMILES: CC(C)[C@@H]1NC(=O)CNC(=O)[C@H](Cc2c[nH]c3ccccc23)NC(=O)[C@@H]2CCCN2C(=O)[C@H](CC(=O)O)NC(=O)[C@H](CCC(N)=O)NC(=O)[C@H](CCC(=O)O)NC(=O)[C@H](Cc2ccc(O)cc2)NC(=O)CNC(=O)[C@@H](N)CSSC[C@@H](C(=O)N[C@H](CCCCN)C(=O)N[C@H](CCCCN)C(=O)N[C@H](CCCCN)C(=O)N[C@@H](CCCCNC(=O)CCCC[C@@H]2SC[C@@H]3NC(=O)N[C@@H]32)C(N)=O)NC(=O)CNC(=O)[C@H](Cc2ccc(O)cc2)NC(=O)[C@H](Cc2c[nH]c3ccccc23)NC(=O)[C@H](Cc2ccc(O)cc2)NC(=O)[C@H](CCCNC(=N)N)NC1=O [cyclic M2pep(RY)Biotin, CGYEQDPWGVRYWYGCkkk] (H-CGYEQDPWGVRYWYGC[dK][dK][dK]K(Biotin)-NH2; disulfide 1-16)
- Kd (M2 macrophages [2]; listed as disulfide-cyclized M2pep(RY)): 36.3 µM
- binding activity to M2 macrophages (in words) (M2 macrophages [2]): comparable binding activity to the linear AcM2pep(RY)Biotin
- overall serum stability (in words) ([3]; mouse serum, 37° C.): markedly improved serum stability over the linear AcM2pep(RY)Biotin
